System: L-Procaine aptamer (DNA, aptamer) GGCGACAAGGAAAATCCTTCAACGAAGGTGGGTGGCC
Test: E-AB square wave voltammetry, 3D-printed gold electrode cell
Conditions: undiluted human serum; in serum; immobilised aptamer; apparent; Hill fit

How did the EC50 turn out when `CCN(CC)CCOC(=O)c1ccc(N)cc1` was run?
The EC50 was 59.2 mM.

— article PMC11325214 (2024)
